In US20240262806A1, “INHIBITORS OF NLRP3” (PTC THERAPEUTICS, INC., priority 2021, published 2024):

Test system: NLRP3 inflammasome
Assay: IL-1β Secretion Assay (NLRP3-dependent IL-1β secretion in PMA-differentiated THP-1 cells, nigericin activation, HTRF)
Type: cell-based
Details: Homo sapiens, THP-1, THP-1 cells, 100 ng/mL PMA 24 h, compound 20 h, 2.5 μM Nigericin 3 h; read-out: IC50 IL-1β Inhibition
Outline: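 IL-1β release, quantified by HTRF after nigericin activation of the NLRP3 inflammasome, was the read-out. A logistic fit of percent inhibition gave IC50.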

| SMILES | IC50 |
| --- | --- |
| CN1C[C@H](F)C[C@@H](Nc2nnc(-c3ccc(C(F)(F)F)cc3OC(F)F)c3c(F)ccn23)C1 [Compound I-439] | 1 to 10 nM |
| C[C@@H](O)CNc1nnc(-c2ccc(C(F)(F)F)cc2OC(F)F)c2c(F)ccn12 [Compound I-440] | 10 to 100 nM |
| CN1CCC[C@@H](Nc2nnc(-c3ccc(OC(F)(F)F)cc3O)c3c(F)ccn23)C1 [Compound I-441] | 1 to 10 nM |
| CCN1CCC[C@@H](Nc2nnc(-c3ccc(Cl)cc3O)c3cncn23)C1 [Compound I-442] | < 1 nM |
| CN1CCC[C@@H](Nc2nnc(-c3ccc(Cl)cc3C(F)F)c3cccn23)C1 [Compound I-443, 1-[4-Chloro-2-(difluoromethyl)phenyl]-N-[(3R)-1-methyl-3-piperidyl]pyrrolo[1,2-d][1,2,4]triazin-4-amine] | 1 to 10 nM |
| Cc1cc(O)c(-c2nnc(N[C@@H]3C[C@@H](F)CN(C)C3)n3cccc23)c(F)c1 [Compound I-444] | < 1 nM |
| CN1C[C@H](F)C[C@@H](Nc2nnc(-c3c(O)cc(C4CC4)cc3F)c3cccn23)C1 [Compound I-445, 5-Cyclopropyl-3-fluoro-2-[4-[[(3R,5R)-5-fluoro-1-methyl-3-piperidyl]amino]-pyrrolo[1,2-d][1,2,4]triazin-1-yl]phenol] | 1 to 10 nM |
| CN1CCC[C@@H](Nc2nnc(-c3ccc(C4CC4)cc3C(F)F)c3cccn23)C1 [Compound I-446, 1-[4-Cyclopropyl-2-(difluoromethyl)phenyl]-N-[(3R)-1-methyl-3-piperidyl]pyrrolo-[1,2-d][1,2,4]triazin-4-amine] | 1 to 10 nM |
| Oc1cc(C(F)(F)F)cc(F)c1-c1nnc(N[C@@H]2CCCN(C3CCOC3)C2)n2cccc12 (some centres unmarked) [Compound I-447] | 1 to 10 nM |
| Oc1cc(C(F)(F)F)ccc1-c1nnc(N[C@@H]2CC[C@H](O)C2)n2cccc12 [Compound I-448] | 10 to 100 nM |
| Oc1cc(C(F)(F)F)ccc1-c1nnc(N[C@@H]2CC[C@@H](O)C2)n2cccc12 [Compound I-449] | 10 to 100 nM |
| CC1(O)CCCC(Nc2nnc(-c3ccc(C(F)(F)F)cc3O)c3cccn23)C1 (centres unmarked) [Compound I-450] | 10 to 100 nM |
| COc1cc(Br)ccc1-c1nnc(N[C@@H]2CCCN(C)C2)n2nccc12 [Compound I-451] | 10 to 100 nM |
| CN1CCC[C@@H](Nc2nnc(-c3ccc(Br)cc3O)c3ccnn23)C1 [Compound I-452] | 1 to 10 nM |
| CCN1CCC[C@@H](Nc2nnc(-c3ccc(Br)cc3O)c3ccnn23)C1 [Compound I-453] | < 1 nM |
| Cc1cc2c(-c3c(O)cc(Cl)cc3F)nnc(N[C@@H]3CCCN(C)C3)n2n1 [Compound I-455] | < 1 nM |
| COc1cc(O)c(-c2nnc(N[C@@H]3CCCN(C)C3)n3cccc23)c(F)c1 [Compound I-456] | < 1 nM |
| COc1cc(O)c(-c2nnc(N[C@@H]3CCCN(CCO)C3)n3cccc23)c(F)c1 [Compound I-457] | 1 to 10 nM |
| FC(F)Oc1cc(C(F)(F)F)ccc1-c1nnc(N[C@H]2CCOC2)n2cccc12 [Compound I-458] | 100 to 300 nM |
| Oc1cc(C(F)(F)F)ccc1-c1nnc(N[C@H]2CCOC2)n2cccc12 [Compound I-459] | 10 to 100 nM |
| CN1CC=C[C@@H](Nc2nnc(-c3ccc(C(F)(F)F)cc3O)c3cncn23)C1 [Compound I-460] | 1 to 10 nM |
| CN1CCC[C@@H](Nc2nnc(-c3ccc(C(F)(F)F)cc3O)c3cnnn23)C1 [Compound I-461, (R)-2-(7-((1-Methylpiperidin-3-yl)amino)-[1,2,3]triazolo[1,5-d][1,2,4]triazin-4-yl)-5-(trifluoromethyl)phenol] | 1 to 10 nM |
| Cc1cc(F)c(-c2nnc(N[C@@H]3C[C@@H](F)CN(C)C3)n3cccc23)c(OC(F)F)c1 [Compound I-462] | 10 to 100 nM |
| Cc1cc(F)c(-c2nnc(N[C@@H]3CCCN(CCO)C3)n3cccc23)c(OC(F)F)c1 [Compound I-463] | 10 to 100 nM |

| SMILES | IC50 |
| --- | --- |
| Cc1cc(F)c(-c2nnc(N[C@@H]3CCCOC3)n3cccc23)c(OC(F)F)c1 [Compound I-464] | 100 to 300 nM |
| Cc1cc(F)c(-c2nnc(N[C@H]3C[C@@](C)(O)C3)n3cccc23)c(OC(F)F)c1 [Compound I-465] | 100 to 300 nM |
| Cc1cc(O)c(-c2nnc(N[C@H]3C[C@@](C)(O)C3)n3cccc23)c(F)c1 [Compound I-466] | 1 to 10 nM |
| C[C@]1(O)C[C@@H](Nc2nnc(-c3c(O)cc(C4CC4)cc3F)c3cccn23)C1 [Compound I-467] | 1 to 10 nM |
| CN1C[C@H](F)C[C@@H](Nc2nnc(-c3ccc(C(F)(F)F)cc3C(F)(F)F)c3cccn23)C1 [Compound I-468] | 1 to 10 nM |
| FC(F)OCCN1CCC[C@@H](Nc2nnc(-c3ccc(C(F)(F)F)cc3C(F)(F)F)c3cccn23)C1 [Compound I-469] | 10 to 100 nM |
| CC(C)(O)CN1CCC[C@@H](Nc2nnc(-c3ccc(C(F)(F)F)cc3C(F)(F)F)c3cccn23)C1 [Compound I-470] | 10 to 100 nM |
| COc1ccc(-c2nnc(N[C@@H]3CCCN(C)C3)n3cccc23)c(OC(F)F)c1 [Compound I-471] | 1 to 10 nM |
| COc1ccc(-c2nnc(N[C@H]3C[C@](C)(O)C3)n3cccc23)c(OC(F)F)c1 [Compound I-472] | 10 to 100 nM |
| C[C@H](O)CNc1nnc(-c2ccc(C(F)(F)F)cc2O)c2cccn12 [Compound I-473] | 10 to 100 nM |
| Oc1cc(C(F)(F)F)ccc1-c1nnc(N[C@@H]2CCOC2)n2cccc12 [Compound I-474] | 10 to 100 nM |
| Cc1cc(F)c(-c2nnc(N[C@@H]3CCCN(C4CCOCC4)C3)n3cccc23)c(OC(F)F)c1 [Compound I-475] | 10 to 100 nM |
| Cc1cc(F)c(-c2nnc(N[C@@H]3CCCN(CC(C)(C)O)C3)n3cccc23)c(OC(F)F)c1 [Compound I-476] | 100 to 300 nM |
| Cc1cc(C)c(-c2nnc(N[C@@H]3CCCN(C)C3)n3cccc23)c(O)c1 [Compound I-477] | 1 to 10 nM |
| CN1CC[C@H](F)[C@@H](Nc2nnc(-c3ccc(C(F)(F)F)cc3O)c3cccn23)C1 [Compound I-478] | 10 to 100 nM |
| CCN1CCC[C@@H](Nc2nnc(-c3ccc(C(F)(F)F)cc3O)c3cccn23)C1 [Compound I-479] | < 1 nM |
| CC(C)N1CCC[C@@H](Nc2nnc(-c3ccc(C(F)(F)F)cc3O)c3cccn23)C1 [Compound I-480] | 1 to 10 nM |
| CN1C[C@H](F)C[C@@H](Nc2nnc(-c3c(O)cc(Cl)cc3F)c3cccn23)C1 [Compound I-481] | 1 to 10 nM |
| OCCN1CCC[C@@H](Nc2nnc(-c3c(O)cc(Cl)cc3F)c3cccn23)C1 [Compound I-482] | 1 to 10 nM |
| Oc1cc(C(F)(F)F)ccc1-c1nnc(N[C@@H]2CCCN(CC(F)(F)F)C2)n2cccc12 [Compound I-483] | 100 to 300 nM |
| CN1CCC[C@@H](Nc2nnc(-c3ccc(Br)cc3O)c3cccn23)C1 [Compound I-484, (R)-5-Bromo-2-(4-((1-methylpiperidin-3-yl)amino)pyrrolo[1,2-d][1,2,4]triazin-1-yl)phenol] | 1 to 10 nM |
| CN1CCC[C@@H](Nc2nnc(-c3ccc(Cl)cc3OCC(F)(F)F)c3cccn23)C1 [Compound I-485, (R)-1-(4-Chloro-2-(2,2,2-trifluoroethoxy)phenyl)-N-(1-methylpiperidin-3-yl)pyrrolo[1,2-d][1,2,4]triazin-4-amine] | 10 to 100 nM |
| CN1CC[C@@H](F)[C@@H](Nc2nnc(-c3ccc(C(F)(F)F)cc3O)c3cccn23)C1 [Compound I-486, 2-(4-(((3S,4R)-4-Fluoro-1-methylpiperidin-3-yl)amino)pyrrolo[1,2-d][1,2,4]triazin-1-yl)-5-(trifluoromethyl)phenol] | 10 to 100 nM |
